1 compound from patent US10683273B2, “Compounds as DNA probes, methods and applications thereof” (JAWAHARLAL NEHRU CENTRE FOR ADVANCED SCIENTIFIC RESEARCH, priority 2015, dated 2020) can be followed below.

Structures are written as SMILES.

The test system of this series is MCF-7 cells. The series is described as follows: Cell viability assay (MTT). Conditions: MCF-7, up to 8 μM, about 72 hours. In kind it is cell-based. On the procedure:
MCF-7 cells (4×10^3 cells/well) are seeded in 96-well plate (flat bottom) and cultured for 12 hours. Following this, cells are treated with […] of probe QCy-DT respectively for about 72 hours and further incubated in a humidified CO2 incubator at about 37° C. 20 μL of MTT (5 mg/mL in PBS) solution is added to each well and incubated for about 4 hours at about 37° C. in the CO2 incubator. DMSO (200 μL) is then added to each well. After about 1 hour, absorbance is taken in ELISA microplate reader at 570 nm wavelength.
Following formula is applied for the calculation of percentage of cell viability (CV): CV=(absorbance of the experimental samples/absorbance of the control sample)×100
The data is normalized with control and plotted with mean and standard error.

Take `C[n+]1c(/C=C/c2ccc(O)c(/C=C/c3sc4ccccc4[n+]3C)c2)sc2ccccc21` [QCy-DT, quinone cyanine-dithiazole]: the cell viability (in general, a per cent measure of how many cells are alive, often set against a control) is > 76%.
